Reference: US7425557B2, “Inhibitors of glycogen synthase kinase 3” (Novartis Vaccines and Diagnostics, Inc., priority 1998, dated 2008)
pIC50: −log10 of the molar value.

Molecular target: human GSK3β (Homo sapiens, UniProt P49841)
Experiment: Screening for GSK3 inhibitory activity using a cell-free assay
Format: biochemical
Conditions: read-out: IC50 with respect to GSK3
Method in brief: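 Radiometric cell-free assay with recombinant human GSK3β phosphorylating a biotinylated peptide substrate for 3 h. Reactions were stopped with 50 μM ATP/20 mM EDTA and captured on streptavidin plates. Incorporated radiolabel was counted by scintillation and plotted against compound concentration.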

Sequence of human GSK3β (P49841 whole entry): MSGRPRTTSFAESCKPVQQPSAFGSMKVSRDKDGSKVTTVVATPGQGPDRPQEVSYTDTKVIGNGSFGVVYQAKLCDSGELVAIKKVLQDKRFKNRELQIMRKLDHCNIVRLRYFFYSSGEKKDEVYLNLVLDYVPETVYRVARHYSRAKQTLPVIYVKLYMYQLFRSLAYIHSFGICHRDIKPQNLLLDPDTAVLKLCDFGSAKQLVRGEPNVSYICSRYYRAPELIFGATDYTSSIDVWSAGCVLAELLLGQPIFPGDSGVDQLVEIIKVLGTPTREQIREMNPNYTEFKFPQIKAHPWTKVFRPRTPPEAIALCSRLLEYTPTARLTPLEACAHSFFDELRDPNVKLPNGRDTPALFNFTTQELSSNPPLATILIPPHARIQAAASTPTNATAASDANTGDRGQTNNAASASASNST

Structure (SMILES) | pIC50
N#Cc1ccc(-c2nc(NCCNc3ccc([N+](=O)[O-])cn3)ncc2C(=O)NC(CO)C(N)=O)cc1 (centres unmarked) [N-(1-carbamoyl-2-hydroxyethyl)[4-(4-cyanophenyl)-2-({2-[(5-nitro(2-pyridyl))-amino]ethyl}amino)pyrimidin-5-yl]carboxamide] | ≥ 6.00
NC(=O)C(Cc1ccccc1)NC(=O)c1ccc(-c2ccnc(NCCc3ccccn3)n2)cc1 (centres unmarked) [N-(1-carbamoyl-2-phenyl-ethyl)(4-{2-[(2-(2-pyridyl)ethyl)amino]pyrimidin-4-yl}phenyl)carboxamide] | ≥ 5.00
Cc1nc(NCCNc2ccc([N+](=O)[O-])cn2)ncc1C(=O)NC(Cc1ccccc1)C(N)=O (centres unmarked) [N-(1-carbamoyl-2-phenylethyl)[4-methyl-2-({2-[(5-nitro(2-pyridyl))amino]ethyl}amino)pyrimidin-5-yl]carboxamide] | ≥ 5.00
O=C(NCC(c1ccccc1)c1ccccc1)c1ccc(-c2ccnc(NCCNc3ccc([N+](=O)[O-])cn3)n2)cc1 [N-(2,2-diphenylethyl){4-[2-({2-[(5-nitro(2-pyridyl))amino]ethyl}amino)pyrimidin-4-yl]phenyl}carboxamide] | ≥ 5.00
N#Cc1ccc(-c2nc(NCCNc3ccc([N+](=O)[O-])cn3)ncc2C(=O)NCCN)cc1 [N-(2-aminoethyl)[4-(4-cyanophenyl)-2-({2-[(5-nitro(2-pyridyl))amino]ethyl}amino)pyrimidin-5-yl]carboxamide] | ≥ 6.00
COCCNC(=O)c1ccc(-c2ccnc(NCCNc3ccc([N+](=O)[O-])cn3)n2)cc1 [N-(2-methoxyethyl){4-[2-({2-[(5-nitro(2-pyridyl))amino]ethyl}amino)pyrimidin-4-yl]phenyl}carboxamide] | ≥ 5.00
N#Cc1ccc(-c2nc(NCCNc3ccc([N+](=O)[O-])cn3)ncc2C(=O)NCC(N)=O)cc1 [N-(carbamoylmethyl)[4-(4-cyanophenyl)-2-({2-[(5-nitro(2-pyridyl))amino]ethyl}amino)pyrimidin-5-yl]carboxamide] | ≥ 6.00
N#CCNC(=O)c1cnc(NCCNc2ccc([N+](=O)[O-])cn2)nc1-c1ccc(C#N)cc1 [N-(cyanomethyl)[4-(4-cyanophenyl)-2-({2-[(5-nitro(2-pyridyl))amino]ethyl}amino)pyrimidin-5-yl]carboxamide] | ≥ 6.00
CC(C)(C)NC(=O)c1cnc(NCCNc2ccc([N+](=O)[O-])cn2)nc1-c1ccc(C#N)cc1 [N-(tert-butyl)[4-(4-cyano-phenyl)-2-({2-[(5-nitro(2-pyridyl))amino]ethyl}amino)pyrimidin-5-yl]carboxamide] | ≥ 6.00
O=C(NCCc1ccc(Cl)cc1Cl)c1ccc(-c2ccnc(NCCNc3ccc([N+](=O)[O-])cn3)n2)cc1 [N-[2-(2,4-dichlorophenyl)ethyl]{4-[2-({2-[(5-nitro(2-pyridyl))amino]ethyl}-amino)pyrimidin-4-yl]phenyl}carboxamide] | ≥ 5.00
CN(C)CCNC(=O)c1cnc(NCCNc2ccc([N+](=O)[O-])cn2)nc1-c1ccc(C#N)cc1 [N-[2-(dimethylamino)ethyl][4-(4-cyanophenyl)-2-({2-[(5-nitro(2-pyridyl))-amino]ethyl}amino)pyrimidin-5-yl]carboxamide] | ≥ 6.00
CN(C)CCN(C)C(=O)c1cnc(NCCNc2ccc([N+](=O)[O-])cn2)nc1-c1ccc(C#N)cc1 [N-[2-(dimethylamino)ethyl][4-(4-cyanophenyl)-2-({2-[(5-nitro(2-pyridyl))amino]ethyl}amino)pyrimidin-5-yl]-N-methylcarboxamide] | ≥ 6.00
CNCC(=O)Nc1cnc(NCCNc2ccc([N+](=O)[O-])c(N)n2)nc1-c1ccc(Cl)cc1Cl [N-[2-({2-[(6-amino-5-nitro(2-pyridyl))amino]ethyl}amino)-4-(2,4-dichlorophenyl)pyrimidin-5-yl]-2-(methylamino)acetamide] | ≥ 6.00
CC(=O)Nc1cnc(NCCNc2ccc([N+](=O)[O-])cn2)nc1-c1ccc(Cl)cc1Cl [N-[4-(2,4-dichlorophenyl)-2-({2-[(5-nitro(2-pyridyl))amino]ethyl}amino)pyrimidin-5-yl]-acetamide] | ≥ 6.00
COc1cccc(CNC(=O)c2ccc(-c3ccnc(NCCNc4ccc([N+](=O)[O-])cn4)n3)cc2)c1OC [N-[(2,3-dimethoxyphenyl)methyl]{4-[2-({2-[(5-nitro(2-pyridyl))amino]ethyl}amino)pyrimidin-4-yl]phenyl}carboxamide] | ≥ 5.00
O=C(NCc1ccc(Cl)c(Cl)c1)c1ccc(-c2ccnc(NCCNc3ccc([N+](=O)[O-])cn3)n2)cc1 [N-[(3,4-dichlorophenyl)methyl]{4-[2-({2-[(5-nitro(2-pyridyl))amino]ethyl}amino)pyrimidin-4-yl]phenyl}carboxamide] | ≥ 5.00
O=C(NCc1ccc(F)c(F)c1)c1ccc(-c2ccnc(NCCNc3ccc([N+](=O)[O-])cn3)n2)cc1 [N-[(3,4-difluorophenyl)methyl]{4-[2-({2-[(5-nitro(2-pyridyl))amino]ethyl}amino)pyrimidin-4-yl]phenyl}carboxamide] | ≥ 5.00
COc1ccc(CNC(=O)c2ccc(-c3ccnc(NCCNc4ccc([N+](=O)[O-])cn4)n3)cc2)cc1OC [N-[(3,4-dimethoxyphenyl)methyl]{4-[2-({2-[(5-nitro(2-pyridyl))amino]ethyl}amino)pyrimidin-4-yl]phenyl}carboxamide] | ≥ 5.00

Structure (SMILES) | pIC50
O=C(NCc1cc(Cl)cc(Cl)c1)c1ccc(-c2ccnc(NCCNc3ccc([N+](=O)[O-])cn3)n2)cc1 [N-[(3,5-dichlorophenyl)methyl]{4-[2-({2-[(5-nitro(2-pyridyl))amino]ethyl}amino)pyrimidin-4-yl]phenyl}carboxamide] | ≥ 5.00
O=C(NCc1cccc(Br)c1)c1ccc(-c2ccnc(NCCNc3ccc([N+](=O)[O-])cc3)n2)cc1 [N-[(3-bromophenyl)-methyl]{4-[2-({2-[(4-nitrophenyl)amino]ethyl}amino)pyrimidin-4-yl]phenyl}carboxamide] | ≥ 5.00
O=C(NCc1cccc(Br)c1)c1ccc(-c2ccnc(NCCNc3ccc(C(F)(F)F)cn3)n2)cc1 [N-[(3-bromophenyl)methyl](4-{2-[(2-{[5-(trifluoromethyl)(2-pyridyl)]amino}ethyl)amino]pyrimidin-4-yl}phenyl)-carboxamide] | ≥ 5.00
O=C(NCc1cccc(Br)c1)c1ccc(-c2ccnc(NCCNc3ccc4ccccc4n3)n2)cc1 [N-[(3-bromophenyl)methyl][4-(2-{[2-(2-quinolylamino)ethyl]amino}pyrimidin-4-yl)phenyl]carboxamide] | ≥ 5.00
COc1cccc(CCNc2nccc(-c3ccc(C(=O)NCc4cccc(Br)c4)cc3)n2)c1 [N-[(3-bromophenyl)methyl][4-(2-{[2-(3-methoxyphenyl)ethyl]amino}pyrimidin-4-yl)phenyl]carboxamide] | ≥ 5.00
O=C(NCc1cccc(Br)c1)c1ccc(-c2ccnc(NCCNc3ncccn3)n2)cc1 [N-[(3-bromophenyl)methyl][4-(2-{[2-(pyrimidin-2-ylamino)ethyl]amino}pyrimidin-4-yl)phenyl]carboxamide] | ≥ 6.00
N#Cc1ccc(NCCNc2nccc(-c3ccc(C(=O)NCc4cccc(Br)c4)cc3)n2)nc1 [N-[(3-bromophenyl)methyl]{4-[2-({2-[(5-cyano(2-pyridyl))amino]ethyl}-amino)pyrimidin-4-yl]phenyl}carboxamide] | ≥ 6.00
O=C(NCc1cccc(Br)c1)c1ccc(-c2ccnc(NCCNc3ccc([N+](=O)[O-])cn3)n2)cc1 [N-[(3-bromophenyl)methyl]{4-[2-({2-[(5-nitro(2-pyridyl))amino]ethyl}amino)pyrimidin-4-yl]phenyl}carboxamide] | ≥ 5.00
COc1cccc(NCCNc2nccc(-c3ccc(C(=O)NCc4cccc(Br)c4)cc3)n2)n1 [N-[(3-bromophenyl)methyl]{4-[2-({2-[(6-methoxy(2-pyridyl))amino]ethyl}amino)pyrimidin-4-yl]phenyl}carboxamide] | ≥ 5.00
O=C(NCc1cccc(Br)c1)c1ccc(-c2ccnc(NCCCNc3ccc([N+](=O)[O-])cn3)n2)cc1 [N-[(3-bromophenyl)methyl]{4-[2-({3-[(5-nitro(2-pyridyl))-amino]propyl}amino)pyrimidin-4-yl]phenyl}carboxamide] | ≥ 5.00
O=C(NCc1cccc(Cl)c1)c1ccc(-c2ccnc(NCCNc3ccc([N+](=O)[O-])cn3)n2)cc1 [N-[(3-chlorophenyl)methyl]{4-[2-({2-[(5-nitro(2-pyridyl))amino]ethyl}amino)pyrimidin-4-yl]-phenyl}carboxamide] | ≥ 5.00
O=C(NCc1cccc(F)c1)c1ccc(-c2ccnc(NCCNc3ccc([N+](=O)[O-])cn3)n2)cc1 [N-[(3-fluorophenyl)methyl]{4-[2-({2-[(5-nitro(2-pyridyl))amino]ethyl}amino)pyrimidin-4-yl]-phenyl}carboxamide] | ≥ 5.00
O=C(NCc1cccc(I)c1)c1ccc(-c2ccnc(NCCNc3ccc([N+](=O)[O-])cn3)n2)cc1 [N-[(3-iodophenyl)methyl]{4-[2-({2-[(5-nitro(2-pyridyl))amino]ethyl}amino)pyrimidin-4-yl]phenyl}carboxamide] | ≥ 5.00
COc1cccc(CNC(=O)c2ccc(-c3ccnc(NCCNc4ccc([N+](=O)[O-])cn4)n3)cc2)c1 [N-[(3-methoxyphenyl)methyl]{4-[2-({2-[(5-nitro(2-pyridyl))amino]ethyl}amino)pyrimidin-4-yl]phenyl}carboxamide] | ≥ 6.00
Cc1cccc(CNC(=O)c2ccc(-c3ccnc(NCCNc4ccc([N+](=O)[O-])cn4)n3)cc2)c1 [N-[(3-methylphenyl)methyl){4-[2-({2-[(5-nitro(2-pyridyl))amino]ethyl}amino)pyrimidin-4-yl]phenyl}carboxamide] | ≥ 5.00
O=C(NCc1ccc(Br)cc1)c1ccc(-c2ccnc(NCCNc3ccc([N+](=O)[O-])cn3)n2)cc1 [N-[(4-bromophenyl)methyl]{4-[2-({2-[(5-nitro(2-pyridyl))-amino]ethyl}amino)pyrimidin-4-yl]phenyl}carboxamide] | ≥ 5.00
O=C(NCc1ccc(F)cc1)c1ccc(-c2ccnc(NCCNc3ccc([N+](=O)[O-])cn3)n2)cc1 [N-[(4-fluorophenyl)methyl]{4-[2-({2-[(5-nitro(2-pyridyl))amino]ethyl}amino)pyrimidin-4-yl]phenyl}carboxamide] | ≥ 5.00
